Test results reported in ChEMBL document CHEMBL1201862, “PubChem BioAssay data set” (2004).
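All cell lines were grown in 96-well plates and treated with compound for 48 hours. GI50 = concentration required for 50% inhibition of growth.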 Active and inactive are the calls of the source. Cut-off read from the data, not from the text of the source: active = GI50 up to about 1.1 µM and inactive = higher. Residues, ends and D or L forms follow the SMILES beside them. *: point of attachment. Bn = c1ccc(C*)cc1

What was measured:
Test in all cases: NCI-60 cell line screen, 48 h
786-0 = tested on: 786-0
A549 = tested on: A549
HCC 2998 = tested on: HCC 2998
HCT-15 = tested on: HCT-15
HOP-62 = tested on: HOP-62
Hs-578T = tested on: Hs-578T
IGROV-1 = tested on: IGROV-1
LOX IMVI = tested on: LOX IMVI
MDA-MB-231 = tested on: MDA-MB-231
MDA-MB-435 = tested on: MDA-MB-435
NCI-H460 = tested on: NCI-H460
NCI/ADR-RES = tested on: NCI/ADR-RES
OVCAR-3 = tested on: OVCAR-3
OVCAR-4 = tested on: OVCAR-4
OVCAR-5 = tested on: OVCAR-5
RPMI-8226 = tested on: RPMI-8226
SF-539 = tested on: SF-539
SK-MEL-2 = tested on: SK-MEL-2
SK-OV-3 = tested on: SK-OV-3
SNB-19 = tested on: SNB-19

Row | Structure (SMILES) | GI50 (786-0) | GI50 (A549) | GI50 (HCC 2998) | GI50 (HCT-15) | GI50 (HOP-62) | GI50 (Hs-578T) | GI50 (IGROV-1) | GI50 (LOX IMVI) | GI50 (MDA-MB-231) | GI50 (MDA-MB-435) | GI50 (NCI-H460) | GI50 (NCI/ADR-RES) | GI50 (OVCAR-3) | GI50 (OVCAR-4) | GI50 (OVCAR-5) | GI50 (RPMI-8226) | GI50 (SF-539) | GI50 (SK-MEL-2) | GI50 (SK-OV-3) | GI50 (SNB-19)
1 | C[C@@H]1CCC[C@]2(C)O[C@H]2CC[C@@](C)(O)[C@@H]2CC3=C(CO)C(=O)O[C@H]3[C@H]1O2 | > 50 µM (inactive) | > 50 µM (inactive) | > 50 µM (inactive) | > 50 µM | > 50 µM (inactive) | > 50 µM (inactive) | 25.5 µM (inactive) | > 50 µM (inactive) | > 50 µM (inactive) | > 50 µM (inactive) | > 50 µM (inactive) | > 50 µM (inactive) | > 50 µM (inactive) | > 50 µM (inactive) | > 50 µM (inactive) | 28.1 µM (inactive) | > 50 µM (inactive) | > 50 µM (inactive) | > 50 µM (inactive) | > 50 µM (inactive)
2 | CC1=C(C(=O)Nc2ccccc2)C(c2ccc(N(C)C)cc2)C(C(=O)Nc2ccccc2)=C(C)N1 | 29.6 µM (inactive) | 3.31 µM (inactive) | 2.86 µM (inactive) | 0.493 µM | 5 µM (inactive) | > 100 µM (inactive) | 16.9 µM (inactive) | 2.82 µM (inactive) | 29.1 µM (inactive) | 0.804 µM (active) | 1.43 µM (inactive) | > 100 µM (inactive) | 8.69 µM (inactive) | 50.8 µM (inactive) | 18.6 µM (inactive) | 3.13 µM (inactive) | 9.59 µM (inactive) | > 70.1 µM (inactive) | 59.2 µM (inactive) | 64.3 µM (inactive)
3 | CO[C@@H]1C[C@H]2N3CC[C@@]2(c2cc4c(cc2C3)OCO4)[C@H]2O[C@@H]12 | > 100 µM (inactive) | > 100 µM (inactive) | > 100 µM (inactive) | > 100 µM | > 100 µM (inactive) | > 100 µM (inactive) | > 100 µM (inactive) | > 100 µM (inactive) | > 100 µM (inactive) | > 100 µM (inactive) | > 100 µM (inactive) | > 100 µM (inactive) | > 100 µM (inactive) | > 100 µM (inactive) | > 100 µM (inactive) | > 100 µM (inactive) | 0.603 µM (active) | > 100 µM (inactive) | > 100 µM (inactive) | > 100 µM (inactive)
4 | COc1ccc(/C=C\c2cc(OC)c(OC)c(OC)c2)cc1OC | 0.198 µM (active) | 0.239 µM (active) | 0.134 µM (active) | 0.113 µM | 0.128 µM (active) | 0.0604 µM (active) | 0.278 µM (active) | 0.32 µM (active) | 0.472 µM (active) | 0.0184 µM (active) | 0.142 µM (active) | 0.222 µM (active) | 0.0916 µM (active) | 15.8 µM (inactive) | 12.2 µM (inactive) | 0.162 µM (active) | 0.113 µM (active) | 0.0641 µM (active) | 0.114 µM (active) | 0.153 µM (active)
5 | NC(Cc1ccccc1)C(=O)O (stereo not drawn) [DL-PHENYLALANINE] | > 100 µM (inactive) | > 100 µM (inactive) | > 100 µM (inactive) | > 100 µM | > 100 µM (inactive) | > 100 µM (inactive) | > 100 µM (inactive) | > 100 µM (inactive) | > 100 µM (inactive) | > 100 µM (inactive) | > 100 µM (inactive) | > 100 µM (inactive) | > 100 µM (inactive) | > 100 µM (inactive) | > 100 µM (inactive) | > 100 µM (inactive) | > 100 µM (inactive) | > 100 µM (inactive) | > 100 µM (inactive) | > 100 µM (inactive)
6 | CCOC(=O)C1=C(C)N(Cc2ccccc2)C2(O)C=CC(O)=C3C(=O)c4ccccc4C(=O)C312 (stereo not given) | 13.4 µM (inactive) | 15.3 µM (inactive) | 17 µM (inactive) | 3.82 µM | 14.2 µM (inactive) | 22.4 µM (inactive) | 4.16 µM (inactive) | 14.1 µM (inactive) | 15.3 µM (inactive) | 8.93 µM (inactive) | 11.3 µM (inactive) | 0.182 µM (active) | 7.67 µM (inactive) | 15.4 µM (inactive) | 15.8 µM (inactive) | 9.42 µM (inactive) | 16.3 µM (inactive) | 13.9 µM (inactive) | 29.6 µM (inactive) | 26.5 µM (inactive)
7 | CN1CCC(O)(OC(=O)C(c2ccccc2)C2(O)CCCC2)CC1 (stereo not given) | > 100 µM (inactive) | > 100 µM (inactive) | > 100 µM (inactive) | > 100 µM | > 100 µM (inactive) | > 100 µM (inactive) | > 100 µM (inactive) | > 100 µM (inactive) | > 100 µM (inactive) | > 100 µM (inactive) | > 100 µM (inactive) | > 100 µM (inactive) | > 100 µM (inactive) | > 100 µM (inactive) | > 100 µM (inactive) | > 100 µM (inactive) | > 100 µM (inactive) | > 100 µM (inactive) | > 100 µM (inactive) | > 100 µM (inactive)
8 | COC(=O)C(CC(C)C)NC(=O)C(N)Cc1ccc(OCc2ccccc2)cc1 (stereo not given) (H-Tyr(Bn)-Leu-OMe; configuration not given here) | > 10 µM (inactive) | > 10 µM (inactive) | > 10 µM (inactive) | > 10 µM | > 10 µM (inactive) | > 10 µM (inactive) | > 10 µM (inactive) | > 10 µM (inactive) | > 10 µM (inactive) | > 10 µM (inactive) | > 10 µM (inactive) | > 10 µM (inactive) | > 10 µM (inactive) | > 10 µM (inactive) | > 10 µM (inactive) | > 10 µM (inactive) | > 10 µM (inactive) | > 10 µM (inactive) | > 10 µM (inactive) | > 10 µM (inactive)
9 | COc1cc(N(CCC#N)CCC#N)ccc1C(=N/NC(=O)c1cc(Br)ccc1O)/N=N/c1ccc(C)cc1 | 32.1 µM (inactive) | 28.8 µM (inactive) | 19.7 µM (inactive) | 12.2 µM | 20.2 µM (inactive) | 40.2 µM (inactive) | 4.32 µM (inactive) | 17.9 µM (inactive) | 15.5 µM (inactive) | 44.9 µM (inactive) | 15.5 µM (inactive) | 27.1 µM (inactive) | 22.9 µM (inactive) | 18.4 µM (inactive) | 61.4 µM (inactive) | 22.2 µM (inactive) | 29 µM (inactive) | 23.7 µM (inactive) | 24.2 µM (inactive) | 25.6 µM (inactive)
10 | c1ccc(CN2CCc3[nH]c4ccccc4c3C2)cc1 | 22 µM (inactive) | 67.8 µM (inactive) | 15.4 µM (inactive) | 25.9 µM | 41 µM (inactive) | 32.5 µM (inactive) | 38.7 µM (inactive) | 18.3 µM (inactive) | 26.7 µM (inactive) | 22.9 µM (inactive) | 16.7 µM (inactive) | 36.1 µM (inactive) | 33 µM (inactive) | 34.8 µM (inactive) | 39.9 µM (inactive) | 23.8 µM (inactive) | 25 µM (inactive) | 19.9 µM (inactive) | 58.3 µM (inactive) | 69.8 µM (inactive)
11 | CN(C)C(n1cc2c(c1)-c1ccc(Cl)cc1C(c1ccccc1F)=NC2)n1cc2c(c1)-c1ccc(Cl)cc1C(c1ccccc1F)=NC2 | > 100 µM (inactive) | 52.4 µM (inactive) | 82 µM (inactive) | > 100 µM | > 100 µM (inactive) | > 100 µM (inactive) | > 100 µM (inactive) | 12 µM (inactive) | > 100 µM (inactive) | > 100 µM (inactive) | 51.3 µM (inactive) | > 100 µM (inactive) | 87.5 µM (inactive) | > 100 µM (inactive) | 20.2 µM (inactive) | > 100 µM (inactive) | > 100 µM (inactive) | > 100 µM (inactive) | > 100 µM (inactive) | > 100 µM (inactive)
12 | N#Cc1c(SCc2ccccc2)nc(-c2ccccc2)[nH]c1=S | 22.3 µM (inactive) | 30.8 µM (inactive) | 19.3 µM (inactive) | 19.8 µM | 19.8 µM (inactive) | 32.1 µM (inactive) | 29.9 µM (inactive) | 30 µM (inactive) | 37.4 µM (inactive) | 24 µM (inactive) | 23.2 µM (inactive) | 23.5 µM (inactive) | 18.5 µM (inactive) | 30.9 µM (inactive) | 25.8 µM (inactive) | 24.7 µM (inactive) | 25.2 µM (inactive) | 16.7 µM (inactive) | 23.4 µM (inactive) | 29.9 µM (inactive)
13 | O=C(NC(Nc1ccc(F)c(Cl)c1)(C(F)(F)F)C(F)(F)F)C(C(F)(F)F)C(F)(F)F | 30.5 µM (inactive) | 27.2 µM (inactive) | > 100 µM (inactive) | 18.1 µM | > 100 µM (inactive) | 17.6 µM (inactive) | 13.4 µM (inactive) | 12 µM (inactive) | 28.3 µM (inactive) | 26.5 µM (inactive) | 36.1 µM (inactive) | 19.8 µM (inactive) | 26.9 µM (inactive) | 29 µM (inactive) | 23.9 µM (inactive) | 20 µM (inactive) | 22.6 µM (inactive) | 16.6 µM (inactive) | 52.7 µM (inactive) | 30.9 µM (inactive)
